Reference: patent publication US10882825B2, “Non-solvated crystal, preparation method and application thereof” (SHENZHEN CHIPSCREEN BIOSCIENCES CO., LTD., priority 2016, dated 2021)

Assay: Stability test of the crystal form (high temperature, high humidity, strong light irradiation; X-ray powder diffraction and HPLC content)
Assay type: physicochemical
Conditions: high temperature (60° C.), high humidity (90%), strong light irradiation (4500 Lx); day 0 vs day 10
Procedure: Test conditions of X-ray powder diffraction: instrument: D/MAX-1200 (Rigaku, Japan); radiation source: Cu-Kα (40 kV, 40 mA).
Test conditions of stability: high temperature (60° C.), high humidity (90%) and strong light irradiation (4500 Lx) tests are performed according to the Chinese Pharmacopoeia 2010 edition, Part II, Appendix XIX C.
Test conditions of HPLC: instrument: Dionex UltiMate3000; column: Shim-pack VP-ODS 5 μm 250 L×4.6; detector: VWD-3100, detection wavelength: 256 nm; mobile phase: methanol-water-glacial acetic acid (30:70:0.4); flow rate: 1.0 mL/min, column temperature: 30° C.
High temperature (60° C.), high humidity (90%) and strong light irradiation (4500 Lx) tests of the non-solvated crystal A of example 1, non-solvated crystal B of example 2, and non-solvated crystal C of example 3 were performed according to the Chinese Pharmacopoeia 2010 edition, Part II, Appendix XIX C. Samples on day 0 and day 10 respectively were taken to determine the X-ray powder diffraction pattern and content (HPLC method).

COc1ccc2c(Oc3ccc4c(C(=O)Nc5ccccc5N)cccc4c3)ccnc2c1 [non-solvated crystal A, N-(2-aminophenyl)-6-(7-methoxyquinoline-4-oxo)-1-naphthaleneformamide]
content (HPLC method) after stability test: does not change significantly
crystal form (X-ray powder diffraction pattern) after stability test: remain unchanged in their original crystal forms
